Measurements: ChEMBL document CHEMBL1130845, “Modulation of multidrug resistance by taxuspine C and other taxoids from Japanese yew” (Bioorg Med Chem Lett, 1998)
In brackets after ≈: the same amount, converted by molar mass.

What was measured:
L1210 = assay: Cytotoxic activity was evaluated against murine Leukemia L1210 cells; format: functional, cell-based; conditions: Mus musculus
Mus musculus [1] = assay: Compound was evaluated for antitumor activity in P388/VCR-bearing mice at 200 mg/Kg as in the presence of vincristine at 0.1 mg/kg; format: functional
Mus musculus [2] = assay: Compound was evaluated for antitumor activity in P388/VCR-bearing mice at 200 mg/kg as in the presence of vincristine at the 0.1 mg/kg; format: functional
Mus musculus [3] = assay: Compound was evaluated for antitumor activity in P388/VCR-bearing mice at 200 mg/kg in the presence of vincristine at 0.1 mg/kg; format: functional
Mus musculus [4] = assay: Compound was evaluated for antitumor activity in P388/VCR-bearing mice at 200 mg/Kg; format: functional
[5] = Cytotoxic activity was evaluated against Epidermoid Carcinoma KB cells; format: functional, cell-based; conditions: Homo sapiens
Mus musculus [6] = assay: Compound was evaluated for antitumor activity in P388/VCR-bearing mice at 200 mg/kg in the presence of vincristine at 0.2 mg/kg; format: functional
[7] = Effect on cellular accumulation of Vincristine in multidrug resistant human ovarian cancer 2780AD cells was determined in the presence at a dose 10 ug/mL of taxoids; format: functional, A2780 ADR
[8] = Effect on cellular accumulation of Vincristine in multidrug resistant human ovarian cancer 2780AD cells was determined at a dose 10 ug/mL; format: functional, A2780 ADR
Mus musculus [9] = assay: Compound was evaluated for antitumor activity in P388/VCR-bearing mice at 0.2 mg/Kg in the presence of vincristine at 0.1 mg/kg as percent ratio of median survival time of treated mice to control mice; format: functional
Mus musculus [10] = assay: Compound was evaluated for antitumor activity in P388/VCR-bearing mice at 0.2 mg/Kg as in the presence of vincristine at 0.1 mg/kg as the ratio of median survival time of treated mice to control mice; format: functional
Mus musculus [11] = assay: Compound was evaluated for antitumor activity in P388/VCR-bearing mice at 0.2 mg/Kg in the presence of vincristine at 0.1 mg/kg as range.; format: functional
Mus musculus [12] = assay: Compound was evaluated for antitumor activity in P388/VCR-bearing mice at 0.2 mg/Kg as the ratio of median survival time of treated mice to control mice; format: functional
Mus musculus [13] = assay: Compound was evaluated for antitumor activity in P388/VCR-bearing mice at 0.2 mg/Kg as range.; format: functional
Mus musculus [14] = assay: Compound was evaluated for antitumor activity in P388/VCR-bearing mice at 0.2 mg/Kg as percent ratio of median survival time of treated mice to control mice; format: functional

Structure (SMILES)	IC50 (L1210) [µg/mL]	IC50 [5] [µg/mL]	further results
C=C1C2[C@H](OC(C)=O)[C@@H]3CC(=O)[C@@H](C)C([C@@H](OC(C)=O)[C@H](OC(C)=O)[C@]2(C)CC[C@@H]1OC(=O)/C=C/c1ccccc1)C3(C)C (some centres undefined)	5.8 (≈ 9.53 µM)	> 10	Range (Mus musculus [1]): 10 days; T/C (Mus musculus [2]): 105%; Median T/C (Mus musculus [3]): 12 days; T/C (Mus musculus [4]): 138%; Median T/C (Mus musculus [6]): 15.8 days; Range (Mus musculus [6]): 12 days
C=C1[C@@H](OC(=O)/C=C/c2ccccc2)C[C@H](OC(C)=O)[C@]2(C)[C@@H]1C[C@@H]1C[C@H](O)C(C)=C([C@@H](OC(C)=O)[C@@H]2OC(C)=O)C1(C)C [TAXEZOPIDINE H]	6.2 (≈ 10.2 µM)	> 10	
C=C1[C@@H](O)C[C@H](OC(C)=O)[C@@]2(C)[C@@H](OC(C)=O)[C@H](OC(C)=O)C3=C(C)[C@@H](O)C[C@@H]([C@@H](OC(C)=O)[C@H]12)C3(C)C	> 10	9.2 (≈ 17.1 µM)	
CC(=O)O[C@H]1C(=O)[C@@]2(C)[C@H]([C@H](OC(=O)c3ccccc3)[C@]3(O)C[C@H](O)C(C)=C1C3(C)C)[C@]1(OC(C)=O)CO[C@@H]1C[C@@H]2O [BACCATIN III]	> 10	10 (≈ 17 µM)	VCR accumulation [7]: 84
C=C1[C@@H](OC(=O)/C=C/c2ccccc2)CC[C@@]2(C)[C@@H](OC(C)=O)[C@H](OC(C)=O)C3=C(C)[C@@H](OC(C)=O)C[C@@H]([C@@H](O)[C@H]12)C3(C)C	5.8 (≈ 9.53 µM)	9.2 (≈ 15.1 µM)	
CC(=O)O[C@H]1C2=C(CO)[C@@H](O)CC[C@@]2(C)[C@@H](OC(C)=O)[C@H](OC(C)=O)[C@@]2(O)[C@H](C)C(=O)C[C@@H]1C2(C)C	> 10	2.6 (≈ 5.09 µM)	VCR accumulation [8]: 203
C=C1[C@@H](O)CC[C@@]2(C)[C@@H](O)[C@H](OC(C)=O)C3=C(C)C(=O)C[C@@H]([C@@H](O)[C@H]12)C3(C)C	> 10	> 10	
C=C1[C@@H](OC(=O)/C=C/c2ccccc2)CC[C@@]2(C)[C@@H](OC(C)=O)[C@H](OC(C)=O)[C@@]34[C@H](C)C(=O)C[C@@H]([C@@H](OC(C)=O)[C@@]132)C4(C)C [TAXUSPINE C]	> 10	> 10	
CCCCCC(=O)N(C)[C@@H](c1ccccc1)[C@@H](O)C(=O)O[C@H]1C[C@@]2(O)[C@@H](OC(=O)c3ccccc3)[C@@H]3[C@]4(OC(C)=O)CO[C@@H]4C[C@H](O)[C@@]3(C)C(=O)[C@H](OC(C)=O)C(=C1C)C2(C)C	0.48 (≈ 0.557 µM)	0.17 (≈ 0.197 µM)	
CC[C@]1(O)C[C@H]2CN(CCc3c([nH]c4ccccc34)[C@@](C(=O)OC)(c3cc4c(cc3OC)N(C=O)[C@H]3[C@@](O)(C(=O)OC)[C@H](OC(C)=O)[C@]5(CC)C=CCN6CC[C@]43[C@@H]65)C2)C1 [VINCRISTINE]			T/C (Mus musculus [9]): 92%; Median T/C (Mus musculus [10]): 10.6 days; Range (Mus musculus [11]): 10 days; Median T/C (Mus musculus [12]): 12.6 days; Range (Mus musculus [13]): 10 days; T/C (Mus musculus [14]): 110%
CC(=O)O[C@@]12CO[C@@H]1C[C@H](O)[C@@]1(C)C(=O)[C@H](OC(=O)CC(C)O)C3=C(C)[C@@H](OC(=O)[C@H](O)[C@@H](NC(=O)c4ccccc4)c4ccccc4)C[C@@](O)([C@@H](OC(=O)c4ccccc4)[C@H]21)C3(C)C (some centres undefined)	0.95 (≈ 1.06 µM)	0.0025 (≈ 0.00278 µM)	
CC(=O)O[C@H]1C(=O)[C@@]2(C)[C@H]([C@H](OC(=O)c3ccccc3)[C@]3(O)C[C@H](OC(=O)[C@H](O)[C@@H](NC(=O)c4ccccc4)c4ccccc4)C(C)=C1C3(C)C)[C@]1(OC(C)=O)CO[C@@H]1C[C@@H]2O [PACLITAXEL]	0.33 (≈ 0.386 µM)		
C=C1[C@@H](OC(=O)/C=C/c2ccccc2)C[C@H](O)[C@@]2(C)[C@@H](O)[C@H](OC(C)=O)C3=C(C)C(=O)C[C@@H]([C@@H](O)[C@H]12)C3(C)C	> 10	8.5 (≈ 15.8 µM)	
C=C1[C@@H](O)CC[C@@]2(C)[C@@H](OC(C)=O)[C@H](O)C3=C(C)C(=O)C[C@@H]([C@@H](O)[C@H]12)C3(C)C	> 10	> 10	
